Columns and labels:
Cannabinoid receptor 1 = Cannabinoid receptor 1 (Homo sapiens, UniProt P21554)
Progesterone receptor [1] = target: T1, Progesterone receptor (Homo sapiens, UniProt P06401); assay type: functional
T1 sequence (P06401 whole entry): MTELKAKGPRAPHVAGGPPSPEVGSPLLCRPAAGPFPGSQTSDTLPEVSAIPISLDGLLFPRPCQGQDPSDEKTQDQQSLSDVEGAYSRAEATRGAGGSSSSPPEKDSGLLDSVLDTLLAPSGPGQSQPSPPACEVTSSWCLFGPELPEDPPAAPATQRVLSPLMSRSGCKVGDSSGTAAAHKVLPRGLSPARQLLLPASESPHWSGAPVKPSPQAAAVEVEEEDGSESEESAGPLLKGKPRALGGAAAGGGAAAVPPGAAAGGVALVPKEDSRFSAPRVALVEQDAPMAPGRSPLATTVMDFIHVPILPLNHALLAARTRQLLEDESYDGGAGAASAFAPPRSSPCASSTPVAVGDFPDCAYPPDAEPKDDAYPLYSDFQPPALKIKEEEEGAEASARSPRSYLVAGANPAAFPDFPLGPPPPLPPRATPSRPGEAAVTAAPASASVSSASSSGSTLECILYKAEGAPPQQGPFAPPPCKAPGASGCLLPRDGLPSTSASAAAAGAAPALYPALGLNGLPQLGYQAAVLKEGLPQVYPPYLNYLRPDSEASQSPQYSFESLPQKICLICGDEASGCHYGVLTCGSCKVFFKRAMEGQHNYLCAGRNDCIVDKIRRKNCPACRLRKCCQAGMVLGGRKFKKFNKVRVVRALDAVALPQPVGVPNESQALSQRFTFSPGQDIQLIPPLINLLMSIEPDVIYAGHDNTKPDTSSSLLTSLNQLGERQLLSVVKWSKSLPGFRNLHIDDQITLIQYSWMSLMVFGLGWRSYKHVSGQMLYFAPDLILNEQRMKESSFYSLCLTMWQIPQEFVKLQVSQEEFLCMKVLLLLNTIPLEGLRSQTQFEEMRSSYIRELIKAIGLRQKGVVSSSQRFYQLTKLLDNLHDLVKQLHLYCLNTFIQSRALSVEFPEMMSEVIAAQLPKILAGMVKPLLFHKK

B2 bradykinin receptor = target: T2, B2 bradykinin receptor (Homo sapiens, UniProt P30411)
T2 sequence (P30411 whole entry): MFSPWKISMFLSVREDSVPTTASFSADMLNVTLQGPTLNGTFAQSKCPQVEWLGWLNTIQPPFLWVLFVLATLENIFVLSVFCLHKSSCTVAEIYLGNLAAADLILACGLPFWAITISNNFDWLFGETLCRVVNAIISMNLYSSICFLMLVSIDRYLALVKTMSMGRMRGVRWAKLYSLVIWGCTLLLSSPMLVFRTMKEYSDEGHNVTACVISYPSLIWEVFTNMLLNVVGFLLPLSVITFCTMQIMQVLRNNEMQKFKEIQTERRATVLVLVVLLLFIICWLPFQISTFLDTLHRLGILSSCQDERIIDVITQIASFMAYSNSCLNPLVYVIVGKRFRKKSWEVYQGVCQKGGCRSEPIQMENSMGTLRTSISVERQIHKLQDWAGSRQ

Progesterone receptor [2] = target: T1, Progesterone receptor
Thromboxane A2 receptor = target: T3, Thromboxane A2 receptor (Homo sapiens, UniProt P21731); assay type: functional, cell-based
T3 sequence (P21731 whole entry): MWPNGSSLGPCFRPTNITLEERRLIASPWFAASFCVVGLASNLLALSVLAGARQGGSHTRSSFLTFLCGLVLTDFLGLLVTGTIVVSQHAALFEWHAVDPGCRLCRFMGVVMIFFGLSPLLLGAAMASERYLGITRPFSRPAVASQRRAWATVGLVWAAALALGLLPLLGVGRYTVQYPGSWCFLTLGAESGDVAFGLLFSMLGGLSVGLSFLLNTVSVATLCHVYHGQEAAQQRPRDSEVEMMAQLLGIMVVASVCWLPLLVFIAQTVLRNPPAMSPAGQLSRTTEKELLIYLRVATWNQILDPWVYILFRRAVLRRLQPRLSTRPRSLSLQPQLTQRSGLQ

[3] = target: Sodium-dependent serotonin transporter (Homo sapiens, UniProt P31645)
Sodium-dependent serotonin transporter, sequence (P31645 whole entry): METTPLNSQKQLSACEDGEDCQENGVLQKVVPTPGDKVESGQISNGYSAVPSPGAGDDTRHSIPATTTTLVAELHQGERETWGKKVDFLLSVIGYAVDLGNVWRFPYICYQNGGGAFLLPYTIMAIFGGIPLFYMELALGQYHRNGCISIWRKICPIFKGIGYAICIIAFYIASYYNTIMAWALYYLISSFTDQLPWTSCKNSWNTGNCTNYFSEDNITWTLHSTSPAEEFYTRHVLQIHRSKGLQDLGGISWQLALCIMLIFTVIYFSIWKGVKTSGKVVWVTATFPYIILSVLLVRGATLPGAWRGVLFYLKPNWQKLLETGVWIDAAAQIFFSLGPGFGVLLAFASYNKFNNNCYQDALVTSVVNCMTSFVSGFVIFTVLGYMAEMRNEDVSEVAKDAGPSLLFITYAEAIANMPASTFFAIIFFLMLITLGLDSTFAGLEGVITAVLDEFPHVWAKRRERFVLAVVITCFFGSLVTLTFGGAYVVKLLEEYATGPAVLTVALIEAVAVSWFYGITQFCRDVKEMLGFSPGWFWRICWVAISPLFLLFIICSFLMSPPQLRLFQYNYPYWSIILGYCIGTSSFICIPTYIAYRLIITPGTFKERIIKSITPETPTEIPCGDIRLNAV

[4] = target: 5-hydroxytryptamine receptor 2A (Homo sapiens, UniProt P28223); assay type: functional, cell-based
5-hydroxytryptamine receptor 2A, sequence (P28223 whole entry): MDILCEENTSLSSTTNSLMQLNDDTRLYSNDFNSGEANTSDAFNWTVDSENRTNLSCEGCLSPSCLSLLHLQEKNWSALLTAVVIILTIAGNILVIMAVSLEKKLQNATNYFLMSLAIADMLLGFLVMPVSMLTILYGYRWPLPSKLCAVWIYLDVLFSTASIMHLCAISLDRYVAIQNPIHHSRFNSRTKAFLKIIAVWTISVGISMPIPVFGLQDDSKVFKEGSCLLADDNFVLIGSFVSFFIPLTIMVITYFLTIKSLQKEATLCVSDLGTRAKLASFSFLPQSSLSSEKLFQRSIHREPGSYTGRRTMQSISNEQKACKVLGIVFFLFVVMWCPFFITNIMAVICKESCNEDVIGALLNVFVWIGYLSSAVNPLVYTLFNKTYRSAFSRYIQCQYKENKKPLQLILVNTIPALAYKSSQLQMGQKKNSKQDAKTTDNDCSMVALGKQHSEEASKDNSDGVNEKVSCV

Histamine H3 receptor = Histamine H3 receptor (Homo sapiens, UniProt Q9Y5N1)
Histamine H3 receptor, sequence (Q9Y5N1 whole entry): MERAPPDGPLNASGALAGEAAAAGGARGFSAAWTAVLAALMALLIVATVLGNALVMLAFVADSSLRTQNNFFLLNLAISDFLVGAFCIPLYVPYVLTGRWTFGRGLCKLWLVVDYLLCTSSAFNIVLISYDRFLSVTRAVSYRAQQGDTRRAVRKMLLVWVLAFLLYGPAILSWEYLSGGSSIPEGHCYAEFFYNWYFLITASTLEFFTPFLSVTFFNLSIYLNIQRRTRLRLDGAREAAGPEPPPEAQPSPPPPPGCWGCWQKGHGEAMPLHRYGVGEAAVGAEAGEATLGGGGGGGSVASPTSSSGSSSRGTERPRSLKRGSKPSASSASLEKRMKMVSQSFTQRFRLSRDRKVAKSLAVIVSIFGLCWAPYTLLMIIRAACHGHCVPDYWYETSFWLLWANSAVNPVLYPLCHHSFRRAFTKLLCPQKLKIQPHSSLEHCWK

[5] = target: 5-hydroxytryptamine receptor 2B (Homo sapiens, UniProt P41595); assay type: functional, cell-based
5-hydroxytryptamine receptor 2B, sequence (P41595 whole entry): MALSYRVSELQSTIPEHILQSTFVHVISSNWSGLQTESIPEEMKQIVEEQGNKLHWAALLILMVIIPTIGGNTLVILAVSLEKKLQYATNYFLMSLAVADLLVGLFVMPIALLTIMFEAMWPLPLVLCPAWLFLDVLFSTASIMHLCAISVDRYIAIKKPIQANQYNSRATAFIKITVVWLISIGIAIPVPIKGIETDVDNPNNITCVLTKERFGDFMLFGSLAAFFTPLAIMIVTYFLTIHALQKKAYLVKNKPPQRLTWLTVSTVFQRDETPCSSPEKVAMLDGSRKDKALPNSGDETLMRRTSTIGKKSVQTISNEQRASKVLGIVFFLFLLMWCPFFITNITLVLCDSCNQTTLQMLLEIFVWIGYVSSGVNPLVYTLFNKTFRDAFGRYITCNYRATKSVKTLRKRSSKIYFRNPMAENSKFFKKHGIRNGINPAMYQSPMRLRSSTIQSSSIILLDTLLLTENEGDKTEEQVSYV

[6] = target: Beta-1 adrenergic receptor (Homo sapiens, UniProt P08588); assay type: functional
Beta-1 adrenergic receptor, sequence (P08588 whole entry): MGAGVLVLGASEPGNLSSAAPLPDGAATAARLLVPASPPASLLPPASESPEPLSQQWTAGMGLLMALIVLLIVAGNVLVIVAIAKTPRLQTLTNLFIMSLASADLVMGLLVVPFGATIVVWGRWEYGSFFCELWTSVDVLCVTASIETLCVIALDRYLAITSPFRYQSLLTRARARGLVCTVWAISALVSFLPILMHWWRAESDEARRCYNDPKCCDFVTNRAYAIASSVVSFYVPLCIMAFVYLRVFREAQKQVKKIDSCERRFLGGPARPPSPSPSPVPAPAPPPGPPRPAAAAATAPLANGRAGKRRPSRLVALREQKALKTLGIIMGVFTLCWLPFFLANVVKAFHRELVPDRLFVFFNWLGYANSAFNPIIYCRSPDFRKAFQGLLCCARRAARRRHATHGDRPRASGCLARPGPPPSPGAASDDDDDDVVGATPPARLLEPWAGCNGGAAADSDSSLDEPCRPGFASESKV

Endothelin-1 receptor = target: T4, Endothelin-1 receptor (Homo sapiens, UniProt P25101)
T4 sequence (P25101 whole entry): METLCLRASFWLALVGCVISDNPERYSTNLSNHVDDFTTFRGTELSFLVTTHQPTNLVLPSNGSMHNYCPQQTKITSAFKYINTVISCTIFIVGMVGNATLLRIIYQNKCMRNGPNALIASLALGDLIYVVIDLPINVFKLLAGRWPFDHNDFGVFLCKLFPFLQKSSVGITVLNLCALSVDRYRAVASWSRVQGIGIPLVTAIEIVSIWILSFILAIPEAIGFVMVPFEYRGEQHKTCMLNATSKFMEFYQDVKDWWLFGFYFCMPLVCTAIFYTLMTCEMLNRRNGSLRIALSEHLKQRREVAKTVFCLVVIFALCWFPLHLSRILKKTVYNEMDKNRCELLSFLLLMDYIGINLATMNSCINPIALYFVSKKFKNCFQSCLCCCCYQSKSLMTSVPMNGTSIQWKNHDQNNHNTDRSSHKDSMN

[7] = target: T5, Alpha-1A adrenergic receptor (Homo sapiens, UniProt P35348); assay type: functional, cell-based
T5 sequence (P35348 whole entry): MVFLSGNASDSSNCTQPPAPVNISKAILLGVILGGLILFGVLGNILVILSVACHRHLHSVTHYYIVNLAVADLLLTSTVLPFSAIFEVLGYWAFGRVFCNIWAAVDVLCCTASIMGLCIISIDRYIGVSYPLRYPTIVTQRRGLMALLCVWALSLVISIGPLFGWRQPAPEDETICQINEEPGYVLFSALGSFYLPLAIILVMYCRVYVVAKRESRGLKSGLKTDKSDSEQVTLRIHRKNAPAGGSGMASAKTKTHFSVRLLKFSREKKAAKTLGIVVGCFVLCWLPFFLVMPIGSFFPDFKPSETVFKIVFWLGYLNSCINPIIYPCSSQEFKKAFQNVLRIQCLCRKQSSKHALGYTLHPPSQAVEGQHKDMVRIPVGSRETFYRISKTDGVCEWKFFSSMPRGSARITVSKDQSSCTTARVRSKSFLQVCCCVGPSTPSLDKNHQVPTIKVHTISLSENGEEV
Also: assay procedure not described here.

Cannabinoid receptor 1, sequence (P21554 whole entry): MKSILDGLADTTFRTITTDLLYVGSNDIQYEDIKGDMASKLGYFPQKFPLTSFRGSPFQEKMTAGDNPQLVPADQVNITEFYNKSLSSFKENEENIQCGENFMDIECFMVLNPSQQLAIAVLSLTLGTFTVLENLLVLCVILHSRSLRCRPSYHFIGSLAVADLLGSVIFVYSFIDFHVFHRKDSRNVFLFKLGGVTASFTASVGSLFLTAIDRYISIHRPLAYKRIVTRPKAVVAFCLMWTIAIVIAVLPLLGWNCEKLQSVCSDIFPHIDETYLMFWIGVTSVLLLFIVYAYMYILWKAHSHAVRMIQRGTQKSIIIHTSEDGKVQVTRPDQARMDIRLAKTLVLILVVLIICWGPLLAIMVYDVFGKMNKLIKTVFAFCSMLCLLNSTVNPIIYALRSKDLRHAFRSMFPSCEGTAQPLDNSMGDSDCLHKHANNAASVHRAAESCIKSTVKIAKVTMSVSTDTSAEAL

SMILES	AC50 (Cannabinoid receptor 1)	AC50 (Progesterone receptor [1])	AC50 (B2 bradykinin receptor)	AC50 (Progesterone receptor [2])	AC50 (Thromboxane A2 receptor)	AC50 [3]	AC50 [4]	AC50 (Histamine H3 receptor)	AC50 [5]	AC50 [6]	AC50 (Endothelin-1 receptor)	AC50 [7]
CCN(CCO)CCCC(C)Nc1ccnc2cc(Cl)ccc12 (stereo not drawn) [HYDROXYCHLOROQUINE]	> 10 µM	> 10 µM	> 10 µM									
C#CCN(C)Cc1ccccc1 [PARGYLINE]				> 30 µM	> 30 µM	> 30 µM	> 30 µM	> 30 µM	> 30 µM			
CC(C)NCC(O)COc1ccc(CC(N)=O)cc1 (stereo not drawn) [ATENOLOL]	26 µM	> 30 µM	> 30 µM									
NCCCCCC(=O)O [AMINOCAPROIC ACID]	> 10 µM	> 10 µM	> 10 µM							> 10 µM		
O=C1[C@@H]2[C@H]3CC[C@H](C3)[C@@H]2C(=O)N1C[C@@H]1CCCC[C@H]1CN1CCN(c2nsc3ccccc23)CC1 [LURASIDONE]		> 30 µM		> 30 µM	> 30 µM	> 30 µM		> 30 µM	> 30 µM		> 30 µM	
O=C(c1ccccc1)c1ccc2n1CCC2C(=O)O (stereo not drawn) [KETOROLAC]	> 30 µM	> 10 µM	> 10 µM							> 10 µM		
O=C(Cc1cccs1)N[C@@H]1C(=O)N2C(C(=O)[O-])=C(C[n+]3ccccc3)CS[C@H]12 [CEPHALORIDINE]				> 30 µM	> 30 µM	> 30 µM	> 30 µM	> 30 µM	> 30 µM			
CN(C)CCCC1(c2ccc(F)cc2)OCc2cc(C#N)ccc21 (stereo not drawn) [CITALOPRAM]	> 10 µM		> 30 µM	> 30 µM	> 30 µM			> 30 µM	> 30 µM	> 10 µM	> 30 µM	
CCCCCCCCCCCCCCCC(=O)OC[C@H](COP(=O)([O-])OCC[N+](C)(C)C)OC(=O)CCCCCCCCCCCCCCC [COLFOSCERIL PALMITATE]				> 30 µM	> 30 µM	> 30 µM		> 30 µM	> 30 µM			> 30 µM
NC(=O)C1(N2CCCCC2)CCN(CCCC(=O)c2ccc(F)cc2)CC1 [PIPAMPERONE]				> 30 µM	> 30 µM	15.8 µM		21.7 µM	> 30 µM			> 30 µM
Cc1cc(C)cc(OCC2CNC(=O)O2)c1 (stereo not drawn) [METAXALONE]				> 30 µM	> 30 µM	> 30 µM		> 30 µM	> 30 µM			> 30 µM
C[C@H](Nc1ncnc2[nH]cnc12)c1cc2cccc(Cl)c2c(=O)n1-c1ccccc1 [DUVELISIB]		> 30 µM		> 30 µM	> 30 µM	> 30 µM	> 30 µM	> 30 µM	> 30 µM	> 30 µM	> 30 µM	
CC(C)NC[C@H](O)COc1ccc(O)cc1 [PRENALTEROL]				> 30 µM	> 30 µM	> 30 µM		> 30 µM	> 30 µM			> 30 µM
C[C@H](CS)C(=O)N1CCC[C@H]1C(=O)O [CAPTOPRIL]	> 10 µM		> 30 µM							> 10 µM		
NC(=O)C1(N2CCCCC2)CCN(CCCN2c3ccccc3CCc3ccccc32)CC1 [CARPIPRAMINE]				> 30 µM	24.6 µM	2.73 µM		11.7 µM	> 30 µM			13.7 µM
O=C(O)[C@H](O)[C@@H](O)[C@H](O)[C@H](O)CO [GLUCONIC ACID]				> 30 µM	> 30 µM	> 30 µM		> 30 µM	> 30 µM			> 30 µM
CCC1(c2ccccc2)C(=O)NCNC1=O [PRIMIDONE]	> 10 µM	> 10 µM	> 10 µM							> 10 µM		
CN1CCN(C(c2ccccc2)c2ccc(Cl)cc2)CC1 (stereo not drawn) [CHLORCYCLIZINE]				> 30 µM	11.3 µM	15.4 µM		15.8 µM	> 30 µM			> 30 µM
Nc1nnc(-c2cccc(Cl)c2Cl)c(N)n1 [LAMOTRIGINE]	> 10 µM		> 30 µM							> 10 µM	> 30 µM	

— ChEMBL document CHEMBL5291721, “A preclinical secondary pharmacology resource illuminates target-adverse drug reaction associations of marketed drugs” (Nat Commun, 2023)
